In ChEMBL document CHEMBL3046629, “Fungicidal Activities of 2-Methoxy-2-[2-(benzylideneaminooxymethyl)phenyl]-N-methylacetamide Derivatives” (2002):
Calls of active or inactive are those of the source. No cut-off for these calls is given here.

Key:
[1] = system: Pseudoperonospora cubensis; assay: Fungicidal activity against Pseudoperonospora cubensis assessed as cucumber downy mildew disease control at 31.3 ppm foliar application 24 hr before inoculation onto the adaxial(treated) surface of leaf by preventive manner; assay type: functional
[2] = system: Pseudoperonospora cubensis; assay: Fungicidal activity against Pseudoperonospora cubensis assessed as cucumber downy mildew disease control at 7.8 ppm foliar application 24 hr before inoculation onto the abaxial(treated) surface of leaf by preventive manner; assay type: functional
[3] = system: Pseudoperonospora cubensis; assay: Fungicidal activity against Pseudoperonospora cubensis assessed as cucumber downy mildew disease control in field at 100 ppm measured after 9 days of last application; assay type: functional
[4] = system: Pseudoperonospora cubensis; assay: Fungicidal activity against Pseudoperonospora cubensis assessed as cucumber downy mildew disease control at 500 ppm foliar application 24 hr before inoculation onto the adaxial(treated) surface of leaf by preventive manner; assay type: functional
Botrytis cinerea [5] = assay: Fungicidal activity against Botryotinia fuckeliana assessed as cucumber gray mold disease control at 125 ppm treated on upper surface of leaf 24 hr before inoculation at 22 +/- 2 degC measured after 3 days by preventive manner; assay type: functional
[6] = system: Pseudoperonospora cubensis; assay: Fungicidal activity against Pseudoperonospora cubensis assessed as cucumber downy mildew disease control at 2 ppm foliar application 24 hr before inoculation onto the adaxial(treated) surface of leaf by preventive manner; assay type: functional
[7] = system: Pseudoperonospora cubensis; assay: Fungicidal activity against Pseudoperonospora cubensis assessed as cucumber downy mildew disease control at 7.8 ppm foliar application 24 hr before inoculation onto the adaxial(treated) surface of leaf by preventive manner; assay type: functional
[8] = system: Pseudoperonospora cubensis; assay: Fungicidal activity against Pseudoperonospora cubensis assessed as cucumber downy mildew disease control at 125 ppm foliar application 24 hr before inoculation onto the abaxial(treated) surface of leaf by preventive manner; assay type: functional
[9] = system: Pseudoperonospora cubensis; assay: Fungicidal activity against Pseudoperonospora cubensis assessed as cucumber downy mildew disease control at 2 ppm foliar application 24 hr after inoculation by curative manner; assay type: functional
[10] = system: Pseudoperonospora cubensis; assay: Fungicidal activity against Pseudoperonospora cubensis assessed as cucumber downy mildew disease control at 31.3 ppm foliar application 24 hr before inoculation onto the abaxial(treated) surface of leaf by preventive manner; assay type: functional
[11] = system: Pseudoperonospora cubensis; assay: Fungicidal activity against Pseudoperonospora cubensis assessed as cucumber downy mildew disease control at 125 ppm foliar application 24 hr before inoculation onto the adaxial(treated) surface of leaf by preventive manner; assay type: functional
[12] = system: Pseudoperonospora cubensis; assay: Fungicidal activity against Pseudoperonospora cubensis assessed as cucumber downy mildew disease control in field at 25 ppm measured after 9 days of last application; assay type: functional
Podosphaera fuliginea [13] = assay: Fungicidal activity against Podosphaera fuliginea assessed as cucumber powdery mildew disease control at 7.8 ppm treated on upper surface of leaf 24 hr before inoculation at 23 +/- 2 degC measured after 10 days by preventive manner; assay type: functional
[14] = system: Pseudoperonospora cubensis; assay: Fungicidal activity against Pseudoperonospora cubensis assessed as cucumber downy mildew disease control at 7.8 ppm foliar application 24 hr after inoculation by curative manner; assay type: functional
Phytophthora infestans = assay: Fungicidal activity against Phytophthora infestans assessed as potato late blight disease suppression in field at 100 ppm following 4 applications at 1 week intervals; assay type: functional, organism-based
[15] = system: Pseudoperonospora cubensis; assay: Fungicidal activity against Pseudoperonospora cubensis assessed as cucumber downy mildew disease control at 2 ppm foliar application 24 hr before inoculation onto the abaxial(treated) surface of leaf by preventive manner; assay type: functional
[16] = system: Pseudoperonospora cubensis; assay: Fungicidal activity against Pseudoperonospora cubensis assessed as cucumber downy mildew disease control at 125 ppm foliar application 24 hr after inoculation by curative manner; assay type: functional
[17] = system: Pseudoperonospora cubensis; assay: Fungicidal activity against Pseudoperonospora cubensis assessed as cucumber downy mildew disease control at 500 ppm foliar application 24 hr before inoculation onto the abaxial(treated) surface of leaf by preventive manner; assay type: functional
[18] = system: Pseudoperonospora cubensis; assay: Fungicidal activity against Pseudoperonospora cubensis assessed as cucumber downy mildew disease control at 31.3 ppm foliar application 24 hr after inoculation by curative manner; assay type: functional
Podosphaera fuliginea [19] = assay: Fungicidal activity against Podosphaera fuliginea assessed as cucumber powdery mildew disease control at 500 ppm treated on upper surface of leaf 24 hr before inoculation at 23 +/- 2 degC measured after 10 days by preventive manner; assay type: functional
Podosphaera fuliginea [20] = assay: Fungicidal activity against Podosphaera fuliginea assessed as cucumber powdery mildew disease control at 31.3 ppm treated on upper surface of leaf 24 hr before inoculation at 23 +/- 2 degC measured after 10 days by preventive manner; assay type: functional
Botrytis cinerea [21] = assay: Fungicidal activity against Botryotinia fuckeliana assessed as cucumber gray mold disease control at 31.3 ppm treated on upper surface of leaf 24 hr before inoculation at 22 +/- 2 degC measured after 3 days by preventive manner; assay type: functional
Botrytis cinerea [22] = assay: Fungicidal activity against Botryotinia fuckeliana assessed as cucumber gray mold disease control at 7.8 ppm treated on upper surface of leaf 24 hr before inoculation at 22 +/- 2 degC measured after 3 days by preventive manner; assay type: functional
Podosphaera fuliginea [23] = assay: Fungicidal activity against Podosphaera fuliginea assessed as cucumber powdery mildew disease control at 125 ppm treated on upper surface of leaf 24 hr before inoculation at 23 +/- 2 degC measured after 10 days by preventive manner; assay type: functional
Botrytis cinerea [24] = assay: Fungicidal activity against Botryotinia fuckeliana assessed as cucumber gray mold disease control at 500 ppm treated on upper surface of leaf 24 hr before inoculation at 22 +/- 2 degC measured after 3 days by preventive manner; assay type: functional
[25] = system: Pseudoperonospora cubensis; assay: Fungicidal activity against Pseudoperonospora cubensis assessed as cucumber downy mildew disease control in field at 400 ppm measured after 9 days of last application; assay type: functional

`CNC(=O)C(OC)c1ccccc1CO/N=C(/SC)c1ccc(C(F)(F)F)cc1` (racemic) showed an Activity [1] of 100%, an Activity [2] of 192% and an Activity [3] of 96.1%. It also gave an Activity [4] of 100%, an Activity (Botrytis cinerea [5]) of 50% and an Activity [6] of 100%. It also gave an Activity [7] of 100%, an Activity [8] of 97% and an Activity [9] of 50%. It also gave an Activity [10] of 99%, an Activity [11] of 100% and an Activity [12] of 62.3%. The Activity (Podosphaera fuliginea [13]) was 90%, the Activity [14] was 79% and the inhibition (Phytophthora infestans) was “Active”. It also gave an Activity [15] of 25%, an Activity [16] of 95% and an Activity [17] of 100%. It also gave an Activity [18] of 95%.

Work on `CNC(=O)C(OC)c1ccccc1CO/N=C(/SC)c1ccc(OC)cc1` (racemic) yielded an Activity [1] of 100%, an Activity [2] of 25% and an Activity [4] of 96%. It also gave an Activity (Botrytis cinerea [5]) of 50%, an Activity [6] of 90% and an Activity [7] of 99%. The Activity [8] was 64%, the Activity [9] was 25% and the Activity [10] was 40%. For the same compound, the Activity [11] was 100%, the Activity [14] was 25% and the Activity [15] was 25%. The Activity [16] was 95%, the Activity (Podosphaera fuliginea [19]) was less than 90% and the Activity [17] was 90%. For the same compound, the Activity [18] was 65%.

`CNC(=O)C(OC)c1ccccc1CO/N=C(/SC)c1ccc(OC(F)F)cc1` (racemic) showed an Activity [1] of 100%, an Activity [2] of 80% and an Activity [3] of 81.6%. For the same compound, the Activity [4] was 100%, the Activity (Podosphaera fuliginea [20]) was 90% and the Activity [6] was 100%. The Activity [7] was 100%, the Activity (Botrytis cinerea [21]) was 50% and the Activity [8] was 100%. It also gave an Activity [9] of 30%, an Activity [10] of 80% and an Activity [11] of 100%. For the same compound, the Activity [12] was 71.4%, the Activity [14] was 40% and the Activity [15] was 60%. For the same compound, the Activity [16] was 78%, the Activity [17] was 100% and the Activity [18] was 65%.

In the case of `CNC(=O)C(OC)c1ccccc1CO/N=C(\C)c1ccc(OC(F)F)cc1` (racemic), the Activity [1] is reported as 97%, the Activity [2] is reported as 65% and the Activity [3] is reported as 52.6%. It also gave an Activity [4] of 97%, an Activity [6] of 97% and an Activity [7] of 97%. The Activity [8] was 95%, the Activity [9] was 25% and the Activity [10] was 90%. The Activity (Botrytis cinerea [22]) was 50%, the Activity [11] was 97% and the Activity (Podosphaera fuliginea [13]) was 90%. The Activity [14] was 70%, the Activity [15] was 30% and the Activity [16] was 75%. The Activity [17] was 97% and the Activity [18] was 75%.

Work on `CNC(=O)C(OC)c1ccccc1COc1ccccc1` (racemic) yielded an Activity [4] of less than 90%, an Activity (Podosphaera fuliginea [23]) of 90% and an Activity [17] of less than 90%. The Activity (Botrytis cinerea [24]) was less than 50%.

`N#Cc1c(Cl)c(Cl)c(Cl)c(C#N)c1Cl` [CHLOROTHALONIL] gave an Activity [25] of 55.3%.
